Measurements as given in patent US20110183995A1, “ELTOPRAZINE FOR SUPPRESSION OF L-DOPA INDUCED DYSKINESIAS” (Neurosearch A/S, priority 2008, published 2011).

Columns and labels:
PD patients = details: large phase III clinical trial, terminated; cited from earlier work
6-OHDA-lesioned rats = assay: Antidyskinetic effect of Eltoprazine in the rat 6-OHDA model (L-DOPA-induced dyskinesia, total AIM score); assay type: in vivo; details: for reduction of dyskinesia (total score: limb, axial and orolingual): compared to the control L-DOPA-only treated group, two-hour test
Protocol: In this experiment we determined the antidyskinetic properties of Eltoprazine.
6-OHDA-lesioned rats were made dyskinetic and allocated into three well-balanced groups (n=6 per group), which were challenge on the day of the experiments with L-DOPA-only, L-DOPA plus Eltoprazine 0.1 mg/kg or L-DOPA plus Eltoprazine 0.3 mg/kg, respectively.
Limb, axial and orolingual dyskinesias were scored over the tow-hour test and the sum is reported here as the total score, and the results are presented in FIG. 4.

SMILES	clinical antidyskinetic efficacy (PD patients)	reduction of dyskinesia (total score: limb, axial and orolingual) (6-OHDA-lesioned rats; Eltoprazine 0.1 mg/kg plus L-DOPA)	reduction of dyskinesia (total score: limb, axial and orolingual) (6-OHDA-lesioned rats; Eltoprazine 0.3 mg/kg plus L-DOPA)	suppression of L-DOPA-induced dyskinesia (6-OHDA-lesioned rats; rats, higher dose alone)
Fc1ccc(-c2cncc(CNC[C@H]3CCc4ccccc4O3)c2)cc1 [Sarizotan]	lack of efficacy			
c1cc2c(c(N3CCNCC3)c1)OCCO2 [Eltoprazine, 1-(2,3-Dihydro-benzo[1,4]dioxin-5-yl)piperazine]		approximately 50%	near-complete abolishment	near-complete suppression
